Measurements as given in patent US20200291086A1, “BIOREVERSABLE PROMOIETIES FOR NITROGEN-CONTAINING AND HYDROXYL-CONTAINING DRUGS” (priority 2013, published 2020).
Numbered stars: 1 amine (or outer) side, 2 acyl side, 3 side chain; on linkers, the order of the positions; unused ones are H or OH. Square brackets hold non-standard residues; d marks the D form. Peptide text beside a SMILES is read from it. * marks the point of attachment. X13 = CCCCCCCCCC(=O)Nc1ccc2c(c1)CN([*:1])[C@H](C(=O)[*:2])C2; Phenylacetic(2-CH2NH2) = O=C(Cc1ccccc1CN[*:1])[*:2]; 2(aminomethyl)benzoyl = O=C(c1ccccc1CN[*:1])[*:2]; X6 = CCCCCCCCCC(=O)NCCCNC(=O)c1ccc(C(=O)*)c(CN)c1; X2 = O=C([C@@H]1Cc2ccccc2N1[*:1])[*:2]; X9 = NCCS(=O)(=O)c1ccc(C(=O)*)c(CN)c1; Tiq1c(1S) = O=C(O)[C@H]1NCCc2ccccc21; X11 = NCCCNC(=O)c1ccc(C(=O)*)c(CN)c1; Tic = O=C(O)[C@@H]1Cc2ccccc2CN1; dTic = O=C(O)[C@H]1Cc2ccccc2CN1; X12 = Cc1cc(N)cc(C(=O)*)c1CN; X5 = Cc1cc(CN)cc(CN)c1C(=O)*; Decanoyl = CCCCCCCCCC(=O)*; X1 = O=C(O)Cc1ccccc1C(=O)*; X4 = NCc1ncccc1C(=O)*; X7 = NCc1cccnc1C(=O)*

experiment: Determination of half life in PBS: cleavage of promoieties from capped model peptides; assay type: physicochemical; settings: PBS (phosphate-buffered saline), pH 4; read-out: t 1/2 (h), cleavage of promoiety linked to N terminus of model peptide X-[…] (converted)
Experimental: Determination Of half Life in PBS
Polypeptides GIVEQAA-NH2 (SEQ ID NO: 57) and […] (SEQ ID NO: 58), two mimics of the N-terminus section of insulin A chain, were used as model peptides to determine the half lives of various promoieties linked to the N-terminus of the peptides through an amide bond. The model peptides were prepared with Fmoc chemistry, cleaved by TFA and purified by preparative RP-HPLC.
The promoiety capped model peptide was dissolved at 1 mg/mL concentration in PBS and the solution was incubated at 37° C. in a water bath. Samples were collected for analysis at different time points (e.g., 8 h, 16 h, 24 h, 48 h, 72 h, 96 h, 120 h). […] The promoiety cleavage was quenched by lowering pH to 2 by addition of 0.1% TFA solution. RP-HPLC was used to monitor the cleavage reactions and the cleavage rates were quantitatively studied by measuring the peak areas of the promoiety capped and released model peptides. Agilent 6110 Quadrupole LC-MS was employed to verify the change of mass in the course of reaction.
The RP-HPLC analysis was performed using a Shimadzu LC-2010A HT system and a 150 mm×4.6 mm Zorbax 300SB-C18 column. The flow rate was 1 ml/min. Solvent A contained 0.1% TFA/5% CH3CN in deionized water, and solvent B contained 0.1% TFA in 100% CH3CN. A linear gradient was employed (e.g., 10-70% B in 10 minutes).
The rate of cleavage was determined for the respective promoiety capped model peptides. The concentrations of the promoiety capped model peptides and the released model peptides were determined by their respective peak areas. The first order dissociation rate constant of a promoiety capped model peptide was determined by plotting the logarithm of [starting promoiety capped model peptide]/[remaining promoiety capped model peptide] at various time intervals. The half life for cleavage of a promoiety capped model peptide was calculated by using the equation and the slope derived from this plot.
The cleavage half lives of various promoieties linked to the model peptides were determined using the procedures described above.

Row | half-life at 1 mg/mL | Compound
1 | 6.2 h | CC[C@H](C)[C@H](NC(=O)CNC(=O)c1ccccc1CC(=O)O)C(=O)N[C@H](C(=O)N[C@@H](CCC(=O)O)C(=O)N[C@@H](CCC(N)=O)C(=O)N[C@@H](C)C(=O)N[C@@H](C)C(=O)N[C@@H](Cc1ccc(O)cc1)C(=O)O)C(C)C [drawing 171] (X1-GIVEQAAY-OH; C-terminus assumed)

same assay, conditions: PBS, 37° C., 1 mg/mL, RP-HPLC

Row | Compound | t 1/2 (h), cleavage of promoiety linked to N terminus of model peptide X-GIVEQAAY
2 | SEQ ID NO: 60 (GIVEQAAY; N-term may be promoiety modified) | 72.6 h

same assay, conditions: PBS, 37° C., 1 mg/mL, RP-HPLC; read-out: t 1/2 (h), cleavage of promoiety linked to N terminus of model peptide X-GIVEQAA (converted)

Row | Compound | half-life at 1 mg/mL
3 | CC[C@H](C)[C@H](NC(=O)CNC(=O)c1c(C)cc(CN)cc1CN)C(=O)N[C@H](C(=O)N[C@@H](CCC(=O)O)C(=O)N[C@@H](CCC(N)=O)C(=O)N[C@@H](C)C(=O)N[C@@H](C)C(=O)O)C(C)C (X5-GIVEQAA-OH; N-terminus and C-terminus assumed) | 300 h
4 | CC[C@H](C)[C@H](NC(=O)CNC(=O)c1ccc(S(=O)(=O)CCN)cc1CN)C(=O)N[C@H](C(=O)N[C@@H](CCC(=O)O)C(=O)N[C@@H](CCC(N)=O)C(=O)N[C@@H](C)C(=O)N[C@@H](C)C(=O)O)C(C)C (X9-GIVEQAA-OH) | 28.1 h
5 | CC[C@H](C)[C@H](NC(=O)CNC(=O)c1cc(N)cc(C)c1CN)C(=O)N[C@H](C(=O)N[C@@H](CCC(=O)O)C(=O)N[C@@H](CCC(N)=O)C(=O)N[C@@H](C)C(=O)N[C@@H](C)C(=O)O)C(C)C (X12-GIVEQAA-OH; N-terminus and C-terminus assumed) | 85 h
6 | CCCCCCCCCC(=O)Nc1ccc2c(c1)CN(C(=O)[C@H](C)N)[C@H](C(=O)NCC(=O)N[C@H](C(=O)N[C@H](C(=O)N[C@@H](CCC(=O)O)C(=O)N[C@@H](CCC(N)=O)C(=O)N[C@@H](C)C(=O)N[C@@H](C)C(=O)O)C(C)C)[C@@H](C)CC)C2 (H-A[X13]GIVEQAA-OH) | 38.9 h

same assay, conditions: PBS, 37° C., 1 mg/mL, RP-HPLC; read-out: t 1/2 (h), cleavage of promoiety linked to N terminus of model peptide X-[…] (converted)

Row | Compound | half-life at 1 mg/mL
7 | CCCCCCCCCC(=O)NCCCNC(=O)c1ccc(C(=O)NCC(=O)N[C@H](C(=O)N[C@H](C(=O)N[C@@H](CCC(=O)O)C(=O)N[C@@H](CCC(N)=O)C(=O)N[C@@H](C)C(=O)N[C@@H](C)C(=O)N[C@@H](Cc2ccc(O)cc2)C(=O)O)C(C)C)[C@@H](C)CC)c(CN)c1 (X6-GIVEQAAY-OH) | 181 h
8 | CC[C@H](C)[C@H](NC(=O)CNC(=O)c1ccccc1CC(=O)O)C(=O)N[C@H](C(=O)N[C@@H](CCC(=O)O)C(=O)N[C@@H](CCC(N)=O)C(=O)N[C@@H](C)C(=O)N[C@@H](C)C(=O)N[C@@H](Cc1ccc(O)cc1)C(=O)O)C(C)C [drawing 173] (X1-GIVEQAAY-OH; C-terminus assumed) | 183 h
9 | CC[C@H](C)[C@H](NC(=O)CNC(=O)[C@@H]1Cc2ccccc2N1C(=O)[C@@H](N)C(C)C)C(=O)N[C@H](C(=O)N[C@@H](CCC(=O)O)C(=O)N[C@@H](CCC(N)=O)C(=O)N[C@@H](C)C(=O)N[C@@H](C)C(=O)N[C@@H](Cc1ccc(O)cc1)C(=O)O)C(C)C [NH2-Val-Indo2CA] (H-V[X2]GIVEQAAY-OH; C-terminus assumed) | 13 h
10 | CC[C@H](C)[C@H](NC(=O)CNC(=O)[C@@H]1Cc2ccccc2N1C(=O)[C@@H](N)Cc1ccccc1)C(=O)N[C@H](C(=O)N[C@@H](CCC(=O)O)C(=O)N[C@@H](CCC(N)=O)C(=O)N[C@@H](C)C(=O)N[C@@H](C)C(=O)N[C@@H](Cc1ccc(O)cc1)C(=O)O)C(C)C [NH2-Phe-Indo2CA] (H-F[X2]GIVEQAAY-OH; C-terminus assumed) | 9.7 h
11 | CC[C@H](C)[C@H](NC(=O)CNC(=O)c1ncccc1CN)C(=O)N[C@H](C(=O)N[C@@H](CCC(=O)O)C(=O)N[C@@H](CCC(N)=O)C(=O)N[C@@H](C)C(=O)N[C@@H](C)C(=O)N[C@@H](Cc1ccc(O)cc1)C(=O)O)C(C)C (X7-GIVEQAAY-OH; C-terminus assumed) | 597 h
12 | N[C@@H](CO)c1nncn1[C@@H](CCCCNC(=O)OCC1c2ccccc2-c2ccccc21)C(=O)O | 193 h
13 | CC[C@H](C)[C@H](NC(=O)CNC(=O)c1cccnc1CN)C(=O)N[C@H](C(=O)N[C@@H](CCC(=O)O)C(=O)N[C@@H](CCC(N)=O)C(=O)N[C@@H](C)C(=O)N[C@@H](C)C(=O)N[C@@H](Cc1ccc(O)cc1)C(=O)O)C(C)C (X4-GIVEQAAY-OH; C-terminus assumed) | 458 h
14 | CC[C@H](C)[C@H](NC(=O)CNC(=O)c1ccccc1CN)C(=O)N[C@H](C(=O)N[C@@H](CCC(=O)O)C(=O)N[C@@H](CCC(N)=O)C(=O)N[C@@H](C)C(=O)N[C@@H](C)C(=O)N[C@@H](Cc1ccc(O)cc1)C(=O)O)C(C)C ({2(aminomethyl)benzoyl}-GIVEQAAY-OH; C-terminus assumed) | 1030 h
15 | CC[C@H](C)[C@H](NC(=O)CNC(=O)c1ccc(C(=O)NCCCN)cc1CN)C(=O)N[C@H](C(=O)N[C@@H](CCC(=O)O)C(=O)N[C@@H](CCC(N)=O)C(=O)N[C@@H](C)C(=O)N[C@@H](C)C(=O)N[C@@H](Cc1ccc(O)cc1)C(=O)O)C(C)C (X11-GIVEQAAY-OH) | 112 h

Next, values leading:

Row | half-life at 1 mg/mL | Compound
16 | 46.9 h | CCCCCCCCCC(=O)NCCCC[C@H](N)C(=O)N1Cc2ccccc2C[C@H]1C(=O)NCC(=O)N[C@H](C(=O)N[C@H](C(=O)N[C@@H](CCC(=O)O)C(=O)N[C@@H](CCC(N)=O)C(=O)N[C@@H](C)C(=O)N[C@@H](C)C(=O)N[C@@H](Cc1ccc(O)cc1)C(=O)O)C(C)C)[C@@H](C)CC [NH2-K(C10)-Tic] (H-K(Decanoyl)[Tic]GIVEQAAY-OH; C-terminus assumed)
17 | 79.7 h | N[C@@H](CCCCNC(=O)OCC1c2ccccc2-c2ccccc21)c1nncn1[C@@H](CO)C(=O)O
18 | 482 h | CC[C@H](C)[C@H](NC(=O)CNC(=O)Cc1ccccc1CN)C(=O)N[C@H](C(=O)N[C@@H](CCC(=O)O)C(=O)N[C@@H](CCC(N)=O)C(=O)N[C@@H](C)C(=O)N[C@@H](C)C(=O)N[C@@H](Cc1ccc(O)cc1)C(=O)O)C(C)C ({Phenylacetic(2-CH2NH2)}-GIVEQAAY-OH; C-terminus assumed)
19 | 6 h | CCCCCCCCCC(=O)NCCCC[C@H](N)C(=O)N1c2ccccc2C[C@H]1C(=O)NCC(=O)N[C@H](C(=O)N[C@H](C(=O)N[C@@H](CCC(=O)O)C(=O)N[C@@H](CCC(N)=O)C(=O)N[C@@H](C)C(=O)N[C@@H](C)C(=O)N[C@@H](Cc1ccc(O)cc1)C(=O)O)C(C)C)[C@@H](C)CC [NH2-K(C10)-Indo2CA] (H-K(Decanoyl)[X2]GIVEQAAY-OH; C-terminus assumed)
20 | 262 h | CCCCCCCCCC(=O)NCCCC[C@H](N)C(=O)N1CCc2ccccc2[C@H]1C(=O)NCC(=O)N[C@H](C(=O)N[C@H](C(=O)N[C@@H](CCC(=O)O)C(=O)N[C@@H](CCC(N)=O)C(=O)N[C@@H](C)C(=O)N[C@@H](C)C(=O)N[C@@H](Cc1ccc(O)cc1)C(=O)O)C(C)C)[C@@H](C)CC (H-K(Decanoyl)[Tiq1c(1S)]GIVEQAAY-OH)
21 | 3.4 h | CC[C@H](C)[C@H](NC(=O)CNC(=O)[C@@H]1Cc2ccccc2N1C(=O)[C@H](C)N)C(=O)N[C@H](C(=O)N[C@@H](CCC(=O)O)C(=O)N[C@@H](CCC(N)=O)C(=O)N[C@@H](C)C(=O)N[C@@H](C)C(=O)N[C@@H](Cc1ccc(O)cc1)C(=O)O)C(C)C [NH2-Ala-Indo2CA] (H-A[X2]GIVEQAAY-OH; C-terminus assumed)
22 | 58.9 h | CC[C@H](C)[C@H](NC(=O)CNC(=O)[C@@H]1Cc2ccccc2CN1C(=O)[C@H](C)N)C(=O)N[C@H](C(=O)N[C@@H](CCC(=O)O)C(=O)N[C@@H](CCC(N)=O)C(=O)N[C@@H](C)C(=O)N[C@@H](C)C(=O)N[C@@H](Cc1ccc(O)cc1)C(=O)O)C(C)C [NH2-Ala-Tic] (H-A[Tic]GIVEQAAY-OH; C-terminus assumed)
23 | 50.6 h | CCCCCCCCCC(=O)NCCCC[C@@H](N)C(=O)N1Cc2ccccc2C[C@@H]1C(=O)NCC(=O)N[C@H](C(=O)N[C@H](C(=O)N[C@@H](CCC(=O)O)C(=O)N[C@@H](CCC(N)=O)C(=O)N[C@@H](C)C(=O)N[C@@H](C)C(=O)N[C@@H](Cc1ccc(O)cc1)C(=O)O)C(C)C)[C@@H](C)CC [NH2-dK(C10)-dTic] (H-[dK](Decanoyl)[dTic]GIVEQAAY-OH; C-terminus assumed)

same assay, conditions: compound drawn; stated after the PBS tables; read-out: Half life for cleavage (converted)

Row | half-life at 1 mg/mL | Compound
24 | 779 h | Cc1cc(C(=O)O)cc(CN)c1C(=O)NCCc1ccc(N)cc1
